Here are results for 41 compounds from the supplement of paper PMC12613149.

The nature of series [1]: reversed-phase LC retention time (C18, 15 min MeOH gradient); higher = more hydrophobic / later elution.
A short description of series [2]: collision cross section (TIMS, N2 drift gas) of the primary ion; higher = larger gas-phase ion size.
Where [3] appears, read: ionization mode: ESI+, ion species: [M+H]+.
Setting [4] is: ionization mode: ESI-, ion species: [M-H]-.
[5] abbreviates: ionization mode: ESI+, ion species: [M]+.

For `COc1nc(NC(=O)NS(=O)(=O)c2ccccc2C(F)(F)F)nc(C(F)(F)F)n1` [Tritosulfuron], the “reversed-phase LC retention time” value in series [1] (setting [3]) was 13.7 min; in series [1] (setting [4]) it was 11.8 min. Further, the collision cross section turned out to be 186.88 Å² in series [2] (setting [3]) and 184.96 Å² in series [2] (setting [4]).

In the case of `CC(=O)[C@H]1CC[C@H]2[C@@H]3C=CC4=CC(=O)CC[C@@]4(C)[C@@H]3CC[C@]12C` [Dydrogesterone], the “reversed-phase LC retention time” value in series [1] (setting [3]) is 15.1 min. In series [2] (setting [3]), this compound yielded a collision cross section of 177.44 Å².

On to `CC(=O)CCCCn1c(=O)c2c(ncn2C)n(C)c1=O` [Pentoxifylline], for which, in series [1] (setting [3]), the “reversed-phase LC retention time” value was 9.78 min. For the same compound, the collision cross section in series [2] (setting [3]) was 160.14 Å².

As for `CCCCc1nc(Cl)c(CO)n1Cc1ccc(-c2ccccc2-c2nn[nH]n2)cc1` [Losartan], the “reversed-phase LC retention time” value in series [1] (setting [3]) was determined as 13.3 min; in series [1] (setting [4]), 13 min. The collision cross section in series [2] (setting [3]) was determined as 201.04 Å²; in series [2] (setting [4]), 204 Å².

Take `COC(=O)N(OC)c1ccccc1COc1ccn(-c2ccc(Cl)cc2)n1` [Pyraclostrobin]: in series [1] (setting [3]), the “reversed-phase LC retention time” value worked out at 15.8 min. The collision cross section in series [2] (setting [3]) turned out to be 184.99 Å².

Consider `CC(NC(C)(C)C)C(=O)c1cccc(Cl)c1` (stereo unspecified) [Bupropion], for which the “reversed-phase LC retention time” value in series [1] (setting [3]) came to 10.3 min. In series [2] (setting [3]), this compound yielded a collision cross section of 158.6 Å².

Consider `CCCCN(CCCC)CCCC` [Tributylamine], for which the “reversed-phase LC retention time” value in series [1] (setting [3]) came out at 10.1 min. The compound further yielded a collision cross section in series [2] (setting [3]) of 148.84 Å².

On to `CCC(=O)O[C@]1(C(=O)SCF)[C@H](C)C[C@H]2[C@@H]3C[C@H](F)C4=CC(=O)C=C[C@]4(C)[C@@]3(F)[C@@H](O)C[C@@]21C` [Fluticasone propionate], for which the “reversed-phase LC retention time” value is 15.2 min in series [1] (setting [3]) and 15.7 min in series [1] (setting [4]). Further, the collision cross section is 212.76 Å² in series [2] (setting [3]) and 209.59 Å² in series [2] (setting [4]).

With `CSc1nnc(C(C)(C)C)c(=O)n1N` [Metribuzin], the “reversed-phase LC retention time” value in series [1] (setting [3]) was found to be 11.4 min. Besides, the collision cross section in series [2] (setting [3]) was 147.77 Å².

With `CCC1(c2ccccc2)C(=O)NCNC1=O` [Primidone], the “reversed-phase LC retention time” value in series [1] (setting [3]) turned out to be 9.29 min. Further, the collision cross section in series [2] (setting [3]) stood at 148.13 Å².

For the compound `CCCCCCCCCCCCCCOS(=O)(=O)O` [Tetradecylsulfate], in series [1] (setting [4]), the “reversed-phase LC retention time” value turned out to be 17.2 min. This compound also gave a collision cross section in series [2] (setting [4]) of 175.12 Å².

On to `O=S(=O)(O)CCNC1CCCCC1` [2-(Cyclohexylamino)-ethansulfonic acid], for which the results for the “reversed-phase LC retention time” value in series [1] (setting [3]) and in series [1] (setting [4]) were 5.19 min and 6.1 min, respectively. For the same compound, the collision cross section is 148.57 Å² in series [2] (setting [3]) and 148.72 Å² in series [2] (setting [4]).

On to `CCCCCCCCCCCCS(=O)(=O)O` [1-Dodecanesulfonic acid], for which the “reversed-phase LC retention time” value in series [1] (setting [4]) was found to be 16.1 min. This compound gave a collision cross section in series [2] (setting [4]) of 165.42 Å².

With `CN[C@H]1CC[C@@H](c2ccc(Cl)c(Cl)c2)c2ccccc21` [Sertraline], the “reversed-phase LC retention time” value in series [1] (setting [3]) stood at 13.8 min. The collision cross section in series [2] (setting [3]) turned out to be 168.55 Å².

In the case of `O=P1(N(CCCl)CCCl)NCCCO1` (stereo unspecified) [Cyclophosphamide], the “reversed-phase LC retention time” value in series [1] (setting [3]) was 10.5 min. This compound gave a collision cross section in series [2] (setting [3]) of 147.43 Å².

Consider `NC(=O)C1(N2CCCCC2)CCN(CCCC(=O)c2ccc(F)cc2)CC1` [Pipamperone], for which the “reversed-phase LC retention time” value in series [1] (setting [3]) was found to be 9.13 min. For the same compound, the collision cross section in series [2] (setting [3]) was 194.74 Å².

Turning to `CCCCCCCCCCCC(=O)NCCC[N+](C)(C)CC(=O)O` [Lauramidopropylbetaine], in series [1] (setting [5]), the “reversed-phase LC retention time” value came out at 15.9 min. In addition, the collision cross section in series [2] (setting [5]) is listed as 200.11 Å².

As to `C[N+]1(C)CCCCC1` [Mepiquat], the “reversed-phase LC retention time” value in series [1] (setting [5]) worked out at 1.01 min. Besides, the collision cross section in series [2] (setting [5]) was determined as 118.75 Å².

`CCCCCCCCCC[N+](C)(C)Cc1ccccc1` [Benzyldimethyldecylammonium]: the “reversed-phase LC retention time” value in series [1] (setting [5]) amounted to 14.7 min. Also, the collision cross section in series [2] (setting [5]) is reported as 183.77 Å².

For the compound `CCc1cccc(C)c1N(C(=O)CS(=O)(=O)O)C(C)COC` (stereo unspecified) [Metolachlor ESA], the “reversed-phase LC retention time” value amounted to 12.1 min in series [1] (setting [3]) and 12 min in series [1] (setting [4]). The collision cross section in series [2] (setting [3]) is listed as 170.74 Å²; in series [2] (setting [4]), 173.48 Å².

Consider `O=[N+]([O-])/N=C1\NCCN1Cc1ccc(Cl)nc1` [Imidacloprid], for which the figures for the “reversed-phase LC retention time” value in series [1] (setting [3]) and in series [1] (setting [4]) were 8.67 min and 8.7 min, respectively. The collision cross section came to 155.98 Å² in series [2] (setting [3]) and 157.08 Å² in series [2] (setting [4]).

Consider `Oc1ccnc2ccccc12` [4-Hydroxyquinoline], for which the “reversed-phase LC retention time” value came to 6.72 min in series [1] (setting [3]) and 6.7 min in series [1] (setting [4]). Also, the collision cross section in series [2] (setting [3]) was determined as 124.53 Å²; in series [2] (setting [4]) it was 122.52 Å².

Regarding `Cn1c(N)nc2ncc(-c3ccccc3)cc21` [2-Amino-1-methyl-6-phenylimidazo[4,5-b]pyridine (PhIP)], the “reversed-phase LC retention time” value in series [1] (setting [3]) is 9.5 min; in series [1] (setting [4]) it was 12.1 min. Moreover, the collision cross section in series [2] (setting [3]) turned out to be 152.56 Å²; in series [2] (setting [4]) it was 152.05 Å².

Regarding `N#Cc1c[nH]cc1-c1cccc2c1OC(F)(F)O2` [Fludioxonil], the “reversed-phase LC retention time” value in series [1] (setting [4]) was 14.4 min. Moreover, the collision cross section in series [2] (setting [4]) was 145.03 Å².

Consider `Cc1ccc(-c2cc(C(F)(F)F)nn2-c2ccc(S(N)(=O)=O)cc2)cc1` [Celecoxib], for which the “reversed-phase LC retention time” value in series [1] (setting [3]) was determined as 15.1 min; in series [1] (setting [4]), 15.5 min. For the same compound, the collision cross section in series [2] (setting [3]) came to 189.33 Å²; in series [2] (setting [4]), 191.15 Å².

Take `CCC(CC)Nc1c([N+](=O)[O-])cc(C)c(C)c1[N+](=O)[O-]` [Pendimethalin]: the “reversed-phase LC retention time” value in series [1] (setting [3]) turned out to be 17.1 min. The collision cross section in series [2] (setting [3]) worked out at 160.71 Å².

For `Nc1ccc(Oc2ccc(N)cc2)cc1` [4,4'-Oxydianiline], the “reversed-phase LC retention time” value in series [1] (setting [3]) was found to be 4.06 min. Further, the collision cross section in series [2] (setting [3]) is 159.82 Å².

As for `CCCCCCCCSc1nc(Nc2cc(C(C)(C)C)c(O)c(C(C)(C)C)c2)nc(SCCCCCCCC)n1`, the “reversed-phase LC retention time” value in series [1] (setting [3]) worked out at 21 min. In series [2] (setting [3]), the collision cross section stood at 263.3 Å².

As for `O=C1Cc2cc(CCN3CCN(c4nsc5ccccc45)CC3)c(Cl)cc2N1` [Ziprasidone], in series [1] (setting [3]), the “reversed-phase LC retention time” value came out at 11.2 min. Also, in series [2] (setting [3]), the collision cross section was found to be 192.95 Å².

With `CCN(CC)CC#CCOC(=O)C(O)(c1ccccc1)C1CCCCC1` (stereo unspecified) [Oxybutynin], the “reversed-phase LC retention time” value in series [1] (setting [3]) turned out to be 13.4 min. Further, in series [2] (setting [3]), the collision cross section is reported as 187.9 Å².

In the case of `O=C(O)C(F)(F)C(F)(F)C(F)(F)C(F)(F)C(F)(F)C(F)(F)C(F)(F)C(F)(F)C(F)(F)C(F)(F)F` [Perfluoroundecanoic acid], in series [1] (setting [4]), the “reversed-phase LC retention time” value is 16.5 min. Further, in series [2] (setting [4]), the collision cross section is on record as 182.71 Å².

With `O=C(Nc1ccc(Cl)cc1)Nc1ccc(Cl)c(Cl)c1` [Triclocarban], the results for the “reversed-phase LC retention time” value in series [1] (setting [3]) and in series [1] (setting [4]) were 16.2 min and 16.6 min, respectively. Further, the collision cross section was 173.98 Å² in series [2] (setting [3]) and 167.79 Å² in series [2] (setting [4]).

Regarding `Cc1cccc(C)c1N(Cn1cccn1)C(=O)CO` [Metazachlor-2-hydroxy], the “reversed-phase LC retention time” value in series [1] (setting [3]) was found to be 11.1 min. In series [2] (setting [3]), this compound had a collision cross section of 156.95 Å².

As to `CNC(=O)c1cc(Oc2ccc(NC(=O)Nc3ccc(Cl)c(C(F)(F)F)c3)cc2)ccn1`, the figures for the “reversed-phase LC retention time” value in series [1] (setting [3]) and in series [1] (setting [4]) were 15.8 min and 16.2 min, respectively. For the same compound, the collision cross section was found to be 214.28 Å² in series [2] (setting [3]) and 218.21 Å² in series [2] (setting [4]).

As for `O=C1CCCC2C3CC(CN12)C1CCCCN1C3` (stereo unspecified) [Lupanine], the “reversed-phase LC retention time” value in series [1] (setting [3]) was determined as 5.52 min. Further, the collision cross section in series [2] (setting [3]) amounted to 154.3 Å².

Take `CCN1CCN(c2cc3c(cc2F)c(=O)c(C(=O)O)cn3C2CC2)CC1` [Enrofloxacin]: the “reversed-phase LC retention time” value in series [1] (setting [3]) stood at 8.4 min. The compound further displayed a collision cross section in series [2] (setting [3]) of 186.48 Å².

As to `N#Cc1c(O)c(Cl)c(Cl)c(C#N)c1Cl` [Chlorothalonil-4-hydroxy], in series [1] (setting [4]), the “reversed-phase LC retention time” value was found to be 11.8 min. Besides, the collision cross section in series [2] (setting [4]) is 135.03 Å².

Take `O=c1c2ccccc2[nH]c2ccccc12` [Acridone]: the “reversed-phase LC retention time” value in series [1] (setting [3]) is 11.1 min. For the same compound, the collision cross section in series [2] (setting [3]) amounted to 136.53 Å².

`CC(=O)c1cc(C(C)(C)C)c(O)c(C(C)(C)C)c1` [3,5-Di-tert-butyl-4'-hydroxyacetophenone]: the “reversed-phase LC retention time” value in series [1] (setting [4]) stood at 16.3 min. This compound had a collision cross section in series [2] (setting [4]) of 165.11 Å².

As to `C[C@]12CC(=O)[C@H]3[C@@H](CCC4=CC(=O)CC[C@@]43C)[C@@H]1CC[C@@H]2O` [11-Ketotestosterone], in series [1] (setting [3]), the “reversed-phase LC retention time” value turned out to be 12.6 min. This compound also yielded a collision cross section in series [2] (setting [3]) of 174.04 Å².

Regarding `O=S(=O)(O)c1ccc2[nH]c(-c3ccccc3)nc2c1` [Phenylbenzimidazole sulfonic acid], the entries for the “reversed-phase LC retention time” value in series [1] (setting [3]) and in series [1] (setting [4]) were 7.17 min and 8.23 min, respectively. The collision cross section was found to be 166.31 Å² in series [2] (setting [3]) and 167.47 Å² in series [2] (setting [4]).
